The record followed here is paper doi:10.1101/2025.11.04.686469, “Discovery of Host-Directed Small Molecules with Broad Anti-Leishmanial Efficacy” (bioRxiv, 2025).

For data set [1], the system named is THP-1 macrophages. The data set can be described thus: Effect of compounds on host cell viability (MTT). The conditions noted are these: read-out: 24h LC50; THP1 macrophages, 24-hour incubation, MTT assay (Supplemental Table 2). The data set is classed as cell-based. In a few lines: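 THP-1 cells were differentiated with 150 nM PMA for 72 h, then exposed to compounds at 1–50 μM for 24 h; selected compounds were also run at 1–300 μM for 72 h. MTT at 0.5 mg/mL was added for 2 h at 37 °C, and formazan absorbance was read at 560 nm minus 670 nm.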

Data set [2] concerns intracellular L. donovani amastigotes. Briefly: Luminescent-based evaluation of intracellular anti-leishmanial activity in THP-1 macrophages. The following applies: intracellular Leishmania donovani in THP1 macrophages, luminescence assay (Supplemental Table 2); read-out: Lum IC50. The format is cell-based, Leishmania donovani. As for the experimental part:
Luminescent strains, L. donovani LV82 expressing firefly luciferase (a kind gift from Dr. Abhay Satoskar, Ohio State University) and L. mexicana (NR-51210, ATCC) expressing renilla luciferase were used to evaluate the effect of the compounds in intracellular and extracellular conditions. Wild-type L. donovani LV82 (ATCC) were used for Giemsa staining based experiments. All parasites were cultured at 25°C and 5% CO2 in M199 media (Corning) supplemented with 10% FBS, 1% penicillin/streptomycin, and hemin (0.01 mg/mL), and used in experiments up to passage 15.
THP-1 cells were seeded in a 96 well plate (25,000 cells/well) overnight then differentiated with 150 nM phorbol 12-myristate 13-acetate (PMA) over 72 hours (Supplemental Figure 1). […] Briefly, promastigotes of a known cell density were resuspended in RPMI media (with 10% FBS, 1% P/S and 0.05 mM β-mercaptoethanol) and incubated with adhered THP-1 cells over 18 hours. After infection, cells were washed three times with fresh media to remove extracellular promastigotes.
Infected macrophages were then treated with compounds solubilized in DMSO ranging from 0.1-10 μM in concentrations. After 72 hours of treatment, the viability of the amastigotes within macrophages was determined using Promega firefly luminescence assay (Cat E1500) or Pierce Renilla luciferase assay (Cat 16166) for L. donovani and L. mexicana strains, respectively. Briefly, media was removed, and cells were lysed with the assay lysis buffer. The luciferase substrate was then incubated with the lysed cells for 10 min at room temperature and luminescence of live Leishmania was measured in a white opaque 96 well plate using a Biotek plate reader.

With `Nc1ccc(-n2nc(C(F)(F)F)cc2-c2ccc(-c3ccc(S(F)(F)(F)(F)F)cc3)cc2)cc1` [Compound 104], the CC50 in data set [1] was greater than 50 µM. For the same molecule, the IC50 – broadly, the concentration that gives 50% inhibition – in data set [2] was greater than 10 µM.
`FC(F)(F)c1cc(-c2ccc(-c3ccc(S(F)(F)(F)(F)F)cc3)cc2)n(-c2ccc(Br)cc2)n1` [Compound 105]: the CC50 in data set [1] is greater than 50 µM. Moreover, in data set [2], the IC50 was greater than 10 µM.
As for `NC1CCN(c2ccc(-n3nc(C(F)(F)F)cc3-c3ccc(-c4ccc(S(F)(F)(F)(F)F)cc4)cc3)cc2)C1` (stereo not drawn) [Compound 106], the CC50 in data set [1] came out at 6 µM. Further, in data set [2], the IC50 worked out at 8.1 µM.
For `FC(F)(F)c1cc(-c2ccc(-c3ccc(S(F)(F)(F)(F)F)cc3)cc2)n(-c2ccc(N3CCC(NCc4ccccc4)C3)cc2)n1` (stereo not drawn) [Compound 107], the CC50 in data set [1] is greater than 50 µM. Further, in data set [2], the IC50 is greater than 10 µM.
The like results for `Fc1cccc(CNC2CCN(c3ccc(-n4nc(C(F)(F)F)cc4-c4ccc(-c5ccc(S(F)(F)(F)(F)F)cc5)cc4)cc3)C2)c1` (stereo not drawn) [Compound 108] were, in that order, greater than 50 µM and greater than 10 µM.
The like results for `NCC(=O)NC1CCN(c2ccc(-n3nc(C(F)(F)F)cc3-c3ccc(-c4ccc(C(F)(F)F)cc4)cc3)cc2)CC1` [Compound 111] were, in that order, 5.2 µM and 2.9 µM.
In the case of `FC(F)(F)c1ccc(-c2ccc(-c3cc(C(F)(F)F)nn3-c3ccc(N4CC(NCc5ccccc5)C4)cc3)cc2)cc1` [Compound 112], in data set [1], the CC50 turned out to be 6.3 µM. Moreover, the IC50 in data set [2] is greater than 10 µM.
For the molecule `FC(F)(F)c1ccc(-c2ccc(-c3cc(C(F)(F)F)nn3-c3ccc(NC4CN(Cc5ccccc5)C4)cc3)cc2)cc1` [Compound 113], the CC50 in data set [1] was found to be 19 µM. Besides, the IC50 in data set [2] was greater than 10 µM.
For `FC(F)(F)c1ccc(-c2ccc(-c3cc(C(F)(F)F)nn3-c3ccc(NC4CCN(Cc5ccccc5)C4)cc3)cc2)cc1` (stereo not drawn) [Compound 114], the CC50 in data set [1] was 13.6 µM. Besides, the IC50 in data set [2] is greater than 10 µM.
As to `FC(F)(F)c1ccc(-c2ccc(-c3cc(C(F)(F)F)nn3-c3ccc(NC4CCN(Cc5ccccc5)CC4)cc3)cc2)cc1` [Compound 115], the CC50 in data set [1] is 13.2 µM. In addition, the IC50 in data set [2] amounted to 7.4 µM.
On to `FC(F)(F)c1cn(-c2ccc(NCC3CC3)cc2)c(-c2ccc(-c3ccccc3)cc2)n1` [Compound 116], for which, in data set [1], the CC50 was greater than 50 µM. The IC50 in data set [2] was 9.9 µM.
In the case of `O=C(CCCCBr)N1CCC(Nc2ccc(-n3nc(C(F)(F)F)cc3-c3ccc(-c4ccc(C(F)(F)F)cc4)cc3)cc2)CC1` [Compound 117], the CC50 in data set [1] is greater than 50 µM. Besides, the 50% inhibitory concentration (IC50) in data set [2] worked out at 6.1 µM.
For `NCC(=O)N1CC(Nc2ccc(-n3nc(C(F)(F)F)cc3-c3ccc(-c4ccc(C(F)(F)F)cc4)cc3)cc2)C1` [Compound 118], the CC50 in data set [1] stood at 6.2 µM. Further, the IC50 in data set [2] was determined as 2.6 µM.
As to `NCC(=O)NC1CCN(c2ccc(-n3nc(C(F)(F)F)cc3-c3ccc(-c4ccc(C(F)(F)F)cc4)cc3)cc2)C1` (stereo not drawn) [Compound 119], in data set [1], the CC50 amounted to 37.2 µM. Also, the IC50 in data set [2] was greater than 10 µM.
On the same counts, the results for `FC(F)(F)c1ccc(-c2ccc(-c3cc(C(F)(F)F)nn3-c3ccc(N4CCC(NCc5ccc(Cl)c(C(F)(F)F)c5)CC4)cc3)cc2)cc1` [Compound 120] are greater than 50 µM and greater than 10 µM.
Take `FC(F)(F)c1ccc(-c2ccc(-c3cc(C(F)(F)F)nn3-c3ccc(NC4CCN(Cc5ccc(Cl)c(C(F)(F)F)c5)C4)cc3)cc2)cc1` (stereo not drawn) [Compound 126]: in data set [1], the CC50 was greater than 50 µM. Besides, in data set [2], the IC50 was greater than 10 µM.
As for `CC(C)(C)OC(=O)N[C@@H]1CCN(c2ccc(-n3nc(C(F)(F)F)cc3-c3ccc(-c4ccc(C(F)(F)F)cc4)cc3)cc2)C1` [Compound 127], the CC50 in data set [1] was greater than 50 µM. Further, the IC50 in data set [2] is greater than 10 µM.
For the molecule `CC(C)(C)OC(=O)NC1CCN(c2ccc(-n3nc(C(F)(F)F)cc3-c3ccc(-c4ccc(C(F)(F)F)cc4)cc3)cc2)C1` (stereo not drawn) [Compound 128], the CC50 in data set [1] was greater than 50 µM. The IC50 in data set [2] is greater than 10 µM.
For the molecule `FC(F)(F)c1ccc(-c2cnnn2-c2ccc(Br)cc2)cc1` [Compound 131], the CC50 in data set [1] was 37.2 µM. Also, the IC50 in data set [2] is greater than 10 µM.
On to `Cc1nn(-c2ccc(Br)cc2)c2ccccc12` [Compound 132], for which, in data set [1], the CC50 was greater than 50 µM. For the same molecule, in data set [2], the IC50 was greater than 10 µM.
On the same counts, the results for `FC(F)(F)c1ccc(-c2ccc3nc[nH]c3c2)cc1` [Compound 135] are greater than 50 µM and greater than 10 µM.
In the case of `FC(F)(F)c1ccc(-c2ccc3ncn(-c4ccc(Br)cc4)c3c2)cc1` [Compound 136], the CC50 in data set [1] was greater than 50 µM. In data set [2], the IC50 is greater than 10 µM.
For `NC1CCN(c2ccc(-n3nncc3-c3ccc(-c4ccc(C(F)(F)F)cc4)cc3)cc2)C1` (stereo not drawn) [Compound 137], the CC50 in data set [1] worked out at 7.3 µM. Besides, in data set [2], the IC50 worked out at 4.4 µM.
Turning to `O=[N+]([O-])c1ccc(-n2cnc3ccc(Br)cc32)cc1` [Compound 138], the CC50 in data set [1] is greater than 50 µM. Also, the IC50 in data set [2] is greater than 10 µM.
On the same counts, the results for `O=[N+]([O-])c1ccc(-n2cnc3cc(Br)ccc32)cc1` [Compound 139] are greater than 50 µM and greater than 10 µM.
For `CC(C)(C)OC(=O)NC1CCN(c2ccc(-n3nc(C(F)(F)F)cc3-c3ccc(-c4ccc(C(F)(F)F)cc4)cc3)cc2)C1` (stereo not drawn) [Compound 140], the CC50 in data set [1] was greater than 50 µM. Moreover, the IC50 in data set [2] is greater than 10 µM.
As for `NC1CCN(c2ccc(-n3nc(C(F)(F)F)c4ccc(-c5ccc(C(F)(F)F)cc5)cc43)cc2)C1` (stereo not drawn) [Compound 141], the CC50 in data set [1] came out at 7.7 µM. In addition, in data set [2], the IC50 came to 3.6 µM.
With `CC(C)(C)OC(=O)N1CCC(Oc2ccc(-n3nc(C(F)(F)F)cc3-c3ccc(-c4ccc(C(F)(F)F)cc4)cc3)cc2)C1` (stereo not drawn) [Compound 142], the CC50 in data set [1] was greater than 50 µM. Further, the IC50 in data set [2] is greater than 10 µM.
For the molecule `O=[N+]([O-])c1ccc(-c2cc(C(F)(F)F)nn2-c2ccc(Br)cc2)cc1` [Compound 143], the CC50 in data set [1] is greater than 50 µM. The IC50 in data set [2] is greater than 10 µM.
Take `FC(F)(F)c1ccc(-c2ccc(-c3cc(C(F)(F)F)nn3-c3ccc(OC4CCNC4)cc3)cc2)cc1` (stereo not drawn) [Compound 144]: the CC50 in data set [1] is 5.4 µM. In data set [2], the IC50 was greater than 10 µM.
On the same counts, the results for `FC(F)(F)c1ccc(-c2ccc(-c3cc(C(F)(F)F)nn3-c3ccc(OC4CCN(Cc5ccccc5)C4)cc3)cc2)cc1` (stereo not drawn) [Compound 145] are greater than 50 µM and greater than 10 µM.
Regarding `CC(C)(C)c1ccc(-c2nc(C(F)(F)F)cn2-c2ccc([N+](=O)[O-])cc2)cc1` [Compound 146], the CC50 in data set [1] is greater than 50 µM. For the same molecule, in data set [2], the IC50 was determined as 4.4 µM.
Consider `Nc1ccc(-n2cnc3ccccc32)cc1` [Compound 147], for which the CC50 in data set [1] is greater than 50 µM. The IC50 in data set [2] was greater than 10 µM.
The like results for `CC(C)(C)OC(=O)NCC(=O)Nc1ccc(-n2cnc3ccccc32)cc1` [Compound 148] were, in that order, greater than 50 µM and greater than 10 µM.
As for `CC(C)(C)c1ccc(-c2nc(C(F)(F)F)cn2-c2ccc(N)cc2)cc1` [Compound 149], the CC50 in data set [1] is 28.8 µM. Further, in data set [2], the IC50 amounted to 9.1 µM.
As to `NCC(=O)Nc1ccc(-n2cnc3ccccc32)cc1` [Compound 150], the CC50 in data set [1] is greater than 50 µM. The IC50 in data set [2] is greater than 10 µM.
Take `CC(C)(C)OC(=O)NCC(=O)Nc1ccc(-n2cc(C(F)(F)F)nc2-c2ccc(C(C)(C)C)cc2)cc1` [Compound 151]: the CC50 in data set [1] is 31.8 µM. The IC50 in data set [2] was greater than 10 µM.
Turning to `Nc1ccc(-c2cc(C(F)(F)F)nn2-c2ccc(-c3ccc(C(F)(F)F)cc3)cc2)cc1` [Compound 152], the CC50 in data set [1] worked out at 43.6 µM. Moreover, the IC50 in data set [2] was greater than 10 µM.
The like results for `O=[N+]([O-])c1ccc(-n2cc(C(F)(F)F)nc2-c2ccc(-c3ccc(C(F)(F)F)cc3)cc2)cc1` [Compound 154] were, in that order, 25.5 µM and 2.9 µM.
On the same counts, the results for `NCC(=O)Nc1ccc(-c2cc(C(F)(F)F)nn2-c2ccc(-c3ccc(C(F)(F)F)cc3)cc2)cc1` [Compound 155] are 6.1 µM and 4 µM.
Regarding `Nc1ccc(-n2cc(C(F)(F)F)nc2-c2ccc(-c3ccc(C(F)(F)F)cc3)cc2)cc1` [Compound 156], in data set [1], the CC50 worked out at 20.8 µM. Besides, in data set [2], the IC50 was determined as 5.8 µM.
For `CC(C)(C)c1ccc(-c2nc(C(F)(F)F)cn2-c2ccc(NC(=O)CN)cc2)cc1` [Compound 157], the CC50 in data set [1] was 27.6 µM. Further, the IC50 in data set [2] is greater than 10 µM.
In the case of `NC1CCN(c2ccc(-n3nc(C(F)(F)F)cc3-c3ccncc3)cc2)C1` (stereo not drawn) [Compound 168], in data set [1], the CC50 is greater than 50 µM. Also, the IC50 in data set [2] is 10 µM.
On the same counts, the results for `NC1CN(c2ccc(-n3nc(C(F)(F)F)cc3-c3ccc(-c4ccc(C(F)(F)F)cc4)cc3)cc2)C1` [Compound 172] are greater than 50 µM and greater than 10 µM.
On the same counts, the results for `CS(=O)(=O)c1ccc(-n2nc(C(F)(F)F)cc2-c2ccc(-c3ccccc3)cc2)cc1` [Compound 174] are greater than 50 µM and greater than 10 µM.
